Bridge positions count the residues as written; N and C are the ends. Square brackets hold non-standard residues; d marks the D form. Peptide text beside a SMILES is read from it. Nle = CCCC[C@H](N)C(=O)O

T1 sequence (P22001 whole entry): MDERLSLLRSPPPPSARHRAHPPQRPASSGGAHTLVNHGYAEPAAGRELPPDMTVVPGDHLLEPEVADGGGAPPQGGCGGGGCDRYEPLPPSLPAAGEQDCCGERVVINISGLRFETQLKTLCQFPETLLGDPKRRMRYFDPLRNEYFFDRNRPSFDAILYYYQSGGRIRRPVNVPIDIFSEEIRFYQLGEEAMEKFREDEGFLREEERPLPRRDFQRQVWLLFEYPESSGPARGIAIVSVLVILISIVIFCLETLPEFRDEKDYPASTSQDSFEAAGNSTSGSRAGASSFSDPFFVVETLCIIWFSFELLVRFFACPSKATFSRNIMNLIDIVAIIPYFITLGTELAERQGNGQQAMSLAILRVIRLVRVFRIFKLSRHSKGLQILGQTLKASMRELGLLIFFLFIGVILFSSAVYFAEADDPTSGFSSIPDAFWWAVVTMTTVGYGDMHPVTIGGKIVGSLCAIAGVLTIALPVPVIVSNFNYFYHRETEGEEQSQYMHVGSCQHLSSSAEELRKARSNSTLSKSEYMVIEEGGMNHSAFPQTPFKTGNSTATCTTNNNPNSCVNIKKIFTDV

The experiment concerns the target T1, human Kv1.3 voltage-gated K+ channel (Homo sapiens, UniProt P22001).
T1 construct: host or cells: CHO-DUKX
Put plainly: cell-based. Conditions: inhibition of thallium flux, CHO-DUKX cells with human Kv1.3; read-out: IC50.
Usually IC50 stands for the concentration at which inhibition is half-maximal. Turning to `CCCC[C@H](NC(=O)[C@@H]1CCCN1)C(=O)N[C@@H](CCC(=O)O)C(=O)N[C@@H](CCCC)C(=O)N[C@@H](CCCNC(=N)N)C(=O)N[C@H]1CSSC[C@@H]2NC(=O)[C@H](CCCCN)NC(=O)CNC(=O)[C@H](Cc3ccccc3)NC(=O)[C@H]([C@@H](C)CC)NC(=O)[C@H](CO)NC(=O)CNC(=O)[C@H]([C@@H](C)CC)NC(=O)[C@H](C)NC(=O)[C@H](C)NC(=O)[C@H](CC(C)C)NC(=O)[C@@H]3CSSC[C@@H](C(=O)N[C@@H](Cc4ccc(O)cc4)C(=O)N4CCC[C@H]4C(=O)N[C@@H](CCCNC(=N)N)C(=O)N[C@@H](Cc4c[nH]cn4)C(=O)O)NC(=O)[C@H](CCCCN)NC(=O)[C@H](CSSC[C@H](NC(=O)[C@H](CCC(=O)O)NC(=O)[C@H](C(C)C)NC(=O)[C@H](CO)NC(=O)[C@H](C)NC(=O)[C@H](CO)NC1=O)C(=O)N[C@@H](CCCCN)C(=O)N[C@@H](CCC(N)=O)C(=O)N[C@@H](CCCCN)C(=O)N3)NC(=O)[C@H](CCCCN)NC(=O)[C@H](CCCCN)NC(=O)[C@H](CC(N)=O)NC(=O)[C@H](CCCC)NC2=O` [Compound 125] (H-P[Nle]E[Nle]RCSASVECKQKCLAAIGSIFGKC[Nle]NKKCKCYPRH-OH; disulfide 6-27, 12-32, 16-34), the concentration for half-maximal inhibition (IC50) was found to be 0.383 nM. With `CCCC[C@H](NC(=O)[C@@H]1CCCN1)C(=O)N[C@@H](CCC(=O)O)C(=O)N[C@@H](CCCC)C(=O)N[C@@H](CCCNC(=N)N)C(=O)N[C@H]1CSSC[C@@H]2NC(=O)[C@H](CCCCN)NC(=O)CNC(=O)[C@H](Cc3ccccc3)NC(=O)[C@H]([C@@H](C)CC)NC(=O)[C@H](CO)NC(=O)CNC(=O)[C@H]([C@@H](C)CC)NC(=O)[C@H](C)NC(=O)[C@H](C)NC(=O)[C@H](CC(C)C)NC(=O)[C@@H]3CSSC[C@@H](C(=O)N[C@@H](Cc4ccc(O)cc4)C(=O)N4CCC[C@H]4C(=O)N[C@@H](CCCNC(=N)N)C(=O)O)NC(=O)[C@H](CCCCN)NC(=O)[C@H](CSSC[C@H](NC(=O)[C@H](CCC(=O)O)NC(=O)[C@@H]4CCCN4C(=O)[C@H](CO)NC(=O)[C@H](C)NC(=O)[C@H](CO)NC1=O)C(=O)N[C@@H](CCCCN)C(=O)N[C@@H](CCC(N)=O)C(=O)N[C@@H](CCCCN)C(=O)N3)NC(=O)[C@H](CCCCN)NC(=O)[C@H](CCCCN)NC(=O)[C@H](CC(N)=O)NC(=O)[C@H](CCCC)NC2=O` [Compound 138] (H-P[Nle]E[Nle]RCSASPECKQKCLAAIGSIFGKC[Nle]NKKCKCYPR-OH; disulfide 6-27, 12-32, 16-34) the figure was 0.228 nM; with `CCCC[C@H](NC(=O)[C@@H]1CCCN1)C(=O)N[C@@H](CCC(=O)O)C(=O)N[C@@H](CCCC)C(=O)N[C@@H](CCCNC(=N)N)C(=O)N[C@H]1CSSC[C@@H]2NC(=O)[C@H](CCCCN)NC(=O)CNC(=O)[C@H](Cc3ccccc3)NC(=O)[C@H]([C@@H](C)CC)NC(=O)[C@H](CO)NC(=O)CNC(=O)[C@H]([C@@H](C)CC)NC(=O)[C@H](C)NC(=O)[C@H](C)NC(=O)[C@H](CC(C)C)NC(=O)[C@@H]3CSSC[C@@H](C(=O)N[C@@H](Cc4ccc(O)cc4)C(=O)N4CCC[C@H]4C(=O)N[C@@H](CCCNC(=N)N)C(=O)O)NC(=O)[C@H](CCCCN)NC(=O)[C@H](CSSC[C@H](NC(=O)[C@H](CCC(=O)O)NC(=O)[C@H](C(C)C)NC(=O)[C@H](CO)NC(=O)[C@H](Cc4ccc(O)cc4)NC(=O)[C@H](CO)NC1=O)C(=O)N[C@@H](CCCCN)C(=O)N[C@@H](CCC(N)=O)C(=O)N[C@@H](CCCCN)C(=O)N3)NC(=O)[C@H](CCCCN)NC(=O)[C@H](CCCCN)NC(=O)[C@H](CC(N)=O)NC(=O)[C@H](CCCC)NC2=O` [Compound 144] (H-P[Nle]E[Nle]RCSYSVECKQKCLAAIGSIFGKC[Nle]NKKCKCYPR-OH; disulfide 6-27, 12-32, 16-34), 0.739 nM; with `CCCC[C@H](NC(=O)[C@@H]1CCCN1)C(=O)N[C@@H](CCC(=O)O)C(=O)N[C@@H](CCCC)C(=O)N[C@@H](CCCNC(=N)N)C(=O)N[C@H]1CSSC[C@@H]2NC(=O)[C@H](CCCCN)NC(=O)CNC(=O)[C@H](Cc3ccccc3)NC(=O)[C@H]([C@@H](C)CC)NC(=O)[C@H](CO)NC(=O)CNC(=O)[C@H]([C@@H](C)CC)NC(=O)[C@H](C)NC(=O)[C@H](C)NC(=O)[C@H](CC(C)C)NC(=O)[C@@H]3CSSC[C@@H](C(=O)N[C@@H](Cc4ccc(O)cc4)C(=O)N4CCC[C@H]4C(=O)N[C@@H](CCCNC(=N)N)C(=O)N[C@@H](CCCCN)C(=O)N[C@@H](CO)C(=O)O)NC(=O)[C@H](CCCCN)NC(=O)[C@H](CSSC[C@H](NC(=O)[C@H](CCC(=O)O)NC(=O)[C@H](C(C)C)NC(=O)[C@H](CO)NC(=O)[C@H](C)NC(=O)[C@H](CO)NC1=O)C(=O)N[C@@H](CCCCN)C(=O)N[C@@H](CCC(N)=O)C(=O)N[C@@H](CCCCN)C(=O)N3)NC(=O)[C@H](CCCCN)NC(=O)[C@H](CCCCN)NC(=O)[C@H](CC(N)=O)NC(=O)[C@H](CCCC)NC2=O` [Compound 127] (H-P[Nle]E[Nle]RCSASVECKQKCLAAIGSIFGKC[Nle]NKKCKCYPRKS-OH; disulfide 6-27, 12-32, 16-34), 0.562 nM.

As to `CCCC[C@H](NC(=O)[C@@H]1CCCN1)C(=O)N[C@@H](CCC(=O)O)C(=O)N[C@@H](CCCC)C(=O)N[C@@H](CCCNC(=N)N)C(=O)N[C@H]1CSSC[C@@H]2NC(=O)[C@H](CCCCN)NC(=O)CNC(=O)[C@H](Cc3ccccc3)NC(=O)[C@H]([C@@H](C)CC)NC(=O)[C@H](CO)NC(=O)CNC(=O)[C@H]([C@@H](C)CC)NC(=O)[C@H](C)NC(=O)[C@H](C)NC(=O)[C@H](CC(C)C)NC(=O)[C@@H]3CSSC[C@@H](C(=O)N[C@@H](Cc4ccc(O)cc4)C(=O)N4CCC[C@H]4C(=O)N[C@@H](CCCNC(=N)N)C(=O)O)NC(=O)[C@H](CCCCN)NC(=O)[C@H](CSSC[C@H](NC(=O)[C@H](CCC(=O)O)NC(=O)[C@H](C(C)C)NC(=O)[C@H](CO)NC(=O)[C@H](CO)NC(=O)[C@H](CO)NC1=O)C(=O)N[C@@H](CCCCN)C(=O)N[C@@H](CCC(N)=O)C(=O)N[C@@H](CCCCN)C(=O)N3)NC(=O)[C@H](CCCCN)NC(=O)[C@H](CCCCN)NC(=O)[C@H](CC(N)=O)NC(=O)[C@H](CCCC)NC2=O` [Compound 135] (H-P[Nle]E[Nle]RCSSSVECKQKCLAAIGSIFGKC[Nle]NKKCKCYPR-OH; disulfide 6-27, 12-32, 16-34), the IC50 was 0.336 nM. With `CCCC[C@H](NC(=O)[C@@H]1CCCN1)C(=O)N[C@@H](CCC(=O)O)C(=O)N[C@@H](CCCC)C(=O)N[C@@H](CCCNC(=N)N)C(=O)N[C@H]1CSSC[C@@H]2NC(=O)[C@H](CCCCN)NC(=O)CNC(=O)[C@H](Cc3ccccc3)NC(=O)[C@H]([C@@H](C)CC)NC(=O)[C@H](CO)NC(=O)CNC(=O)[C@H]([C@@H](C)CC)NC(=O)[C@H](C)NC(=O)[C@H](C)NC(=O)[C@H](CC(C)C)NC(=O)[C@@H]3CSSC[C@@H](C(=O)N[C@@H](Cc4ccc(O)cc4)C(=O)N4CCC[C@H]4C(=O)N[C@@H](CCCNC(=N)N)C(=O)O)NC(=O)[C@H](CCCCN)NC(=O)[C@H](CSSC[C@H](NC(=O)[C@H](CCC(=O)O)NC(=O)[C@H](C(C)C)NC(=O)[C@H](CO)NC(=O)[C@H](C)NC(=O)[C@H](CO)NC1=O)C(=O)N[C@@H](CCCCN)C(=O)N[C@@H](CCC(=O)O)C(=O)N[C@@H](CCCCN)C(=O)N3)NC(=O)[C@H](CCCCN)NC(=O)[C@H](CCCCN)NC(=O)[C@H](CC(N)=O)NC(=O)[C@H](CCCC)NC2=O` [Compound 118] (H-P[Nle]E[Nle]RCSASVECKEKCLAAIGSIFGKC[Nle]NKKCKCYPR-OH; disulfide 6-27, 12-32, 16-34) the figure was 1.39 nM; with `CCCC[C@H](NC(=O)[C@@H]1CCCN1)C(=O)N[C@@H](CCC(=O)O)C(=O)N[C@@H](CCCC)C(=O)N[C@@H](CCCNC(=N)N)C(=O)N[C@H]1CSSC[C@@H]2NC(=O)[C@H](CCCCN)NC(=O)CNC(=O)[C@H](Cc3ccccc3)NC(=O)[C@H]([C@@H](C)CC)NC(=O)[C@H](CO)NC(=O)CNC(=O)[C@H]([C@@H](C)CC)NC(=O)[C@H](C)NC(=O)[C@H](C)NC(=O)[C@H](CC(C)C)NC(=O)[C@@H]3CSSC[C@@H](C(=O)N[C@@H](Cc4ccc(O)cc4)C(=O)N4CCC[C@H]4C(=O)N[C@@H](CCCNC(=N)N)C(=O)N[C@@H](CCCNC(=N)N)C(=O)O)NC(=O)[C@H](CCCCN)NC(=O)[C@H](CSSC[C@H](NC(=O)[C@H](CCC(=O)O)NC(=O)[C@H](C(C)C)NC(=O)[C@H](CO)NC(=O)[C@H](C)NC(=O)[C@H](CO)NC1=O)C(=O)N[C@@H](CCCCN)C(=O)N[C@@H](CCC(N)=O)C(=O)N[C@@H](CCCCN)C(=O)N3)NC(=O)[C@H](CCCCN)NC(=O)[C@H](CCCCN)NC(=O)[C@H](CC(N)=O)NC(=O)[C@H](CCCC)NC2=O` [Compound 122] (H-P[Nle]E[Nle]RCSASVECKQKCLAAIGSIFGKC[Nle]NKKCKCYPRR-OH; disulfide 6-27, 12-32, 16-34), 0.226 nM; with `CCCC[C@H](NC(=O)[C@@H]1CCCN1)C(=O)N[C@@H](CCC(=O)O)C(=O)N[C@@H](CCCC)C(=O)N[C@@H](CCCNC(=N)N)C(=O)N[C@H]1CSSC[C@@H]2NC(=O)[C@H](CCCCN)NC(=O)CNC(=O)[C@H](Cc3ccccc3)NC(=O)[C@H]([C@@H](C)CC)NC(=O)[C@H](CO)NC(=O)CNC(=O)[C@H]([C@@H](C)CC)NC(=O)[C@H](C)NC(=O)[C@H](C)NC(=O)[C@H](CC(C)C)NC(=O)[C@@H]3CSSC[C@@H](C(=O)N[C@@H](Cc4ccc(O)cc4)C(=O)N4CCC[C@H]4C(=O)N[C@@H](CCCNC(=N)N)C(=O)O)NC(=O)[C@H](CCCCN)NC(=O)[C@H](CSSC[C@H](NC(=O)[C@H](CCC(=O)O)NC(=O)[C@H](C(C)C)NC(=O)[C@H](CO)NC(=O)[C@H](CC(C)C)NC(=O)[C@H](CO)NC1=O)C(=O)N[C@@H](CCCCN)C(=O)N[C@@H](CCC(N)=O)C(=O)N[C@@H](CCCCN)C(=O)N3)NC(=O)[C@H](CCCCN)NC(=O)[C@H](CCCCN)NC(=O)[C@H](CC(N)=O)NC(=O)[C@H](CCCC)NC2=O` [Compound 136] (H-P[Nle]E[Nle]RCSLSVECKQKCLAAIGSIFGKC[Nle]NKKCKCYPR-OH; disulfide 6-27, 12-32, 16-34), 6.24 nM.

(Values after patent US11780893B2, “Kv1.3 blockers” (Zealand Pharma A/S, priority 2019, dated 2023).)
